In publication PMC5218480 (PLoS ONE, 2017):

Tested on: MV-4-11 cells
Assay: Gene expression microarray analysis (Affymetrix PrimeView) and GSEA
Assay type: cell-based, human
Design: RFU PODN (11730768_x_at) / Fold change /veh PODN (11730768_x_at) / RFU LINC00158 (11744669_a_at) / Fold change /veh LINC00158 (11744669_a_at) / RFU DUSP10 (11751237_a_at) / Fold change /veh DUSP10 (11751237_a_at) / RFU ID3 (11757404_x_at) / Fold change /veh ID3 (11757404_x_at) / RFU PLEKHG5 (11737974_s_at) / Fold change /veh PLEKHG5 (11737974_s_at) / RFU LRRC4B (11730491_at) / Fold change /veh LRRC4B (11730491_at) / RFU GIMAP4 (11747438_a_at) / Fold change /veh GIMAP4 (11747438_a_at) / RFU KRT8 (11758183_x_at) / Fold change /veh KRT8 (11758183_x_at) / RFU CNN1 (11734310_a_at) / Fold change /veh CNN1 (11734310_a_at) / RFU VPS37D (11726825_at) / Fold change /veh VPS37D (11726825_at) / RFU C10orf10 (11716522_x_at) / Fold change /veh C10orf10 (11716522_x_at) / RFU KIR2DL2 /// KIR2DL4 /// KIR2DL5A /// KIR2DL5B /// KIR2DS1 /// KIR2DS2 /// KIR2DS3 /// KIR2DS4 /// KIR3DL3 /// KIR3DL3 /// KIR3DS1 (11738374_at) / Fold change /veh KIR2DL2 /// KIR2DL4 /// KIR2DL5A /// KIR2DL5B /// KIR2DS1 /// KIR2DS2 /// KIR2DS3 /// KIR2DS4 /// KIR3DL3 /// KIR3DL3 /// KIR3DS1 (11738374_at) / RFU C1QL1 (11718748_at) / Fold change /veh C1QL1 (11718748_at) / RFU TMPRSS4 (11747572_a_at) / Fold change /veh TMPRSS4 (11747572_a_at) / RFU HAMP (11756126_x_at) / Fold change /veh HAMP (11756126_x_at) / RFU RNFT2 (11725882_a_at) / Fold change /veh RNFT2 (11725882_a_at) / RFU NR4A2 (11747474_a_at) / Fold change /veh NR4A2 (11747474_a_at) / RFU ABCC12 (11746883_a_at) / Fold change /veh ABCC12 (11746883_a_at) / RFU TMEM136 (11760407_x_at) / Fold change /veh TMEM136 (11760407_x_at) / RFU CLDN22 /// WWC2 (11732394_at) / Fold change /veh CLDN22 /// WWC2 (11732394_at) / RFU HLA-DPB1 (11760878_x_at) / Fold change /veh HLA-DPB1 (11760878_x_at) / RFU SPINT1 (11716480_a_at) / Fold change /veh SPINT1 (11716480_a_at) / RFU GAP43 (11754022_s_at) / Fold change /veh GAP43 (11754022_s_at) / RFU A4GNT (11735810_at) / Fold change /veh A4GNT (11735810_at) / RFU PRB3 (11715151_x_at) / Fold change /veh PRB3 (11715151_x_at) / RFU TUBB4B (11761932_at) / Fold change /veh TUBB4B (11761932_at) / RFU CAPN14 (11732068_a_at) / Fold change /veh CAPN14 (11732068_a_at) / RFU TMCC2 (11721928_a_at) / Fold change /veh TMCC2 (11721928_a_at) / RFU IRGQ (11745062_a_at) / Fold change /veh IRGQ (11745062_a_at) / RFU FAM174B (11720279_a_at) / Fold change /veh FAM174B (11720279_a_at) / RFU TMPRSS4 (11748680_a_at) / Fold change /veh TMPRSS4 (11748680_a_at) / RFU FAM212B (11763350_a_at) / Fold change /veh FAM212B (11763350_a_at) / RFU PLEKHG5 (11743358_a_at) / Fold change /veh PLEKHG5 (11743358_a_at) / RFU ZSCAN30 (11745921_a_at) / Fold change /veh ZSCAN30 (11745921_a_at) / RFU CMKLR1 (11741424_a_at) / Fold change /veh CMKLR1 (11741424_a_at) / RFU LOC101060620 /// MAPK8IP1 (11723275_at) / Fold change /veh LOC101060620 /// MAPK8IP1 (11723275_at) / RFU SPTSSB (11747773_x_at) / Fold change /veh SPTSSB (11747773_x_at) / RFU PRSS12 (11739890_at) / Fold change /veh PRSS12 (11739890_at) / RFU BIN1 (11741810_x_at) / Fold change /veh BIN1 (11741810_x_at) / RFU WNT11 (11732464_a_at) / Fold change /veh WNT11 (11732464_a_at) / RFU C10orf10 (11716521_a_at) / Fold change /veh C10orf10 (11716521_a_at) / RFU C5orf56 (11738089_at) / Fold change /veh C5orf56 (11738089_at) / RFU CYB561 (11721691_x_at) / Fold change /veh CYB561 (11721691_x_at) / RFU ANKRD19P (11752326_a_at) / Fold change /veh ANKRD19P (11752326_a_at) / RFU OR2T12 /// OR2T33 /// OR2T8 (11738714_s_at) / Fold change /veh OR2T12 /// OR2T33 /// OR2T8 (11738714_s_at) / RFU VCAN (11748164_a_at) / Fold change /veh VCAN (11748164_a_at) / RFU JSRP1 (11732532_at) / Fold change /veh JSRP1 (11732532_at) / RFU KRTAP10-11 (11738290_x_at) / Fold change /veh KRTAP10-11 (11738290_x_at) / RFU MYO3A (11730013_a_at) / Fold change /veh MYO3A (11730013_a_at) / RFU EBF3 (11725865_a_at) / Fold change /veh EBF3 (11725865_a_at) / RFU CAMK2N1 (11719241_x_at) / Fold change /veh CAMK2N1 (11719241_x_at) / RFU C5orf56 (11738088_a_at) / Fold change /veh C5orf56 (11738088_a_at) / RFU OLFML3 (11715873_a_at) / Fold change /veh OLFML3 (11715873_a_at) / RFU LOC100653217 /// NTM (11731650_a_at) / Fold change /veh LOC100653217 /// NTM (11731650_a_at) / RFU MAPK11 (11762145_a_at) / Fold change /veh MAPK11 (11762145_a_at) / RFU FIZ1 (11724087_x_at) / Fold change /veh FIZ1 (11724087_x_at) / RFU OASL (11726364_x_at) / Fold change /veh OASL (11726364_x_at) / RFU SOX15 (11748057_x_at) / Fold change /veh SOX15 (11748057_x_at) / RFU CD79A (11719716_a_at) / Fold change /veh CD79A (11719716_a_at) / RFU HIST1H1D (11736915_at) / Fold change /veh HIST1H1D (11736915_at) / RFU CASKIN2 (11723855_a_at) / Fold change /veh CASKIN2 (11723855_a_at) / RFU LOC730098 (11760151_x_at) / Fold change /veh LOC730098 (11760151_x_at) / RFU OR4N2 (11742367_at) / Fold change /veh OR4N2 (11742367_at) / RFU PRRT2 (11749266_a_at) / Fold change /veh PRRT2 (11749266_a_at) / RFU SNX32 (11753110_a_at) / Fold change /veh SNX32 (11753110_a_at) / RFU CDHR5 (11726645_a_at) / Fold change /veh CDHR5 (11726645_a_at) / RFU RCAN1 (11760418_a_at) / Fold change /veh RCAN1 (11760418_a_at) / RFU FAM167A (11723789_a_at) / Fold change /veh FAM167A (11723789_a_at) / RFU FAM26E (11764081_at) / Fold change /veh FAM26E (11764081_at) / RFU ISYNA1 (11749810_s_at) / Fold change /veh ISYNA1 (11749810_s_at) / RFU ACY1 (11761880_at) / Fold change /veh ACY1 (11761880_at) / RFU 11764098_at / Fold change /veh 11764098_at / RFU SAMD14 (11745864_x_at) / Fold change /veh SAMD14 (11745864_x_at) / RFU NPB (11741838_a_at) / Fold change /veh NPB (11741838_a_at) / RFU TMPRSS6 (11731388_a_at) / Fold change /veh TMPRSS6 (11731388_a_at) / RFU KRTAP10-2 (11738614_at) / Fold change /veh KRTAP10-2 (11738614_at) / RFU ARHGAP8 /// PRR5-ARHGAP8 (11727945_x_at) / Fold change /veh ARHGAP8 /// PRR5-ARHGAP8 (11727945_x_at) / RFU KRTAP5-7 /// NADSYN1 (11734609_at) / Fold change /veh KRTAP5-7 /// NADSYN1 (11734609_at) / RFU RASL12 (11751679_a_at) / Fold change /veh RASL12 (11751679_a_at) / RFU CDKN2B (11736163_a_at) / Fold change /veh CDKN2B (11736163_a_at) / RFU PRF1 (11729649_at) / Fold change /veh PRF1 (11729649_at) / RFU, ZNF638 /// ZNF638-IT1 / Fold change vs veh, ZNF638 /// ZNF638-IT1 / RFU, PANK3 / Fold change vs veh, PANK3 / RFU, SH3YL1 / Fold change vs veh, SH3YL1 / RFU, ZEB2 / Fold change vs veh, ZEB2 / RFU, NRIP1 / Fold change vs veh, NRIP1 / RFU, PTTG1IP / Fold change vs veh, PTTG1IP / RFU, CAPN2 / Fold change vs veh, CAPN2 / RFU, MED14 / Fold change vs veh, MED14 / RFU, SNORA58 / Fold change vs veh, SNORA58 / RFU, C1orf63 / Fold change vs veh, C1orf63 / RFU, LRRFIP1 / Fold change vs veh, LRRFIP1 / RFU, NDUFAF7 / Fold change vs veh, NDUFAF7 / RFU, SLC12A2 / Fold change vs veh, SLC12A2 / RFU, IBTK / Fold change vs veh, IBTK / RFU, ESF1 / Fold change vs veh, ESF1 / Fold change vs veh, TMEM50B / RFU, TAOK1 / Fold change vs veh, TAOK1 / RFU, ACBD3 / Fold change vs veh, ACBD3 / RFU, TMA16 / Fold change vs veh, TMA16 / RFU, RWDD3 / Fold change vs veh, RWDD3 / RFU, BCAT1 / Fold change vs veh, BCAT1 / RFU, EDEM3 / Fold change vs veh, EDEM3 / RFU, TMEM33 / Fold change vs veh, TMEM33 / RFU, WDR75 / Fold change vs veh, WDR75 / RFU, AHCTF1 / Fold change vs veh, AHCTF1 / RFU, TFRC / Fold change vs veh, TFRC / RFU, ZDHHC17 / Fold change vs veh, ZDHHC17 / RFU, NOM1 / Fold change vs veh, NOM1 / RFU, ARL8B / Fold change vs veh, ARL8B / RFU, ZBTB11 / Fold change vs veh, ZBTB11 / RFU, TAMM41 / Fold change vs veh, TAMM41 / RFU, KIAA1704 /// LOC100996395 / Fold change vs veh, KIAA1704 /// LOC100996395 / RFU, ING1 / Fold change vs veh, ING1 / RFU, TRMT61B / Fold change vs veh, TRMT61B / RFU, FUBP3 / Fold change vs veh, FUBP3 / RFU, TP53 / Fold change vs veh, TP53 / RFU, TNKS2 / Fold change vs veh, TNKS2 / RFU, ZFP14 / Fold change vs veh, ZFP14 / RFU, ACTR2 / Fold change vs veh, ACTR2 / RFU, PPP3R1 / Fold change vs veh, PPP3R1 / RFU, PIK3R1 / Fold change vs veh, PIK3R1 / RFU, HNRNPA1 / Fold change vs veh, HNRNPA1 / RFU, RNF170 / Fold change vs veh, RNF170 / RFU, ZNF28 / Fold change vs veh, ZNF28 / RFU, RNGTT / Fold change vs veh, RNGTT / RFU, OGT / Fold change vs veh, OGT / RFU, BRD1 / Fold change vs veh, BRD1 / RFU, MARS / Fold change vs veh, MARS / RFU, ZNF655 / Fold change vs veh, ZNF655 / RFU, FAHD1 / Fold change vs veh, FAHD1 / RFU, BDP1 / Fold change vs veh, BDP1 / RFU, LRRCC1 / Fold change vs veh, LRRCC1 / RFU, ARID1A / Fold change vs veh, ARID1A / RFU, ZNF146 / Fold change vs veh, ZNF146 / RFU, ZNF330 / Fold change vs veh, ZNF330 / RFU, GPN3 / Fold change vs veh, GPN3 / RFU, C9orf123 / Fold change vs veh, C9orf123 / RFU, N4BP2L2 / Fold change vs veh, N4BP2L2 / RFU, ARFIP1 / Fold change vs veh, ARFIP1 / RFU, FAM179B / Fold change vs veh, FAM179B / RFU, BCL10 / Fold change vs veh, BCL10 / RFU, UHRF1BP1L / Fold change vs veh, UHRF1BP1L / RFU, BET1 / Fold change vs veh, BET1 / RFU, CNOT2 / Fold change vs veh, CNOT2 / RFU, ZNF268 / Fold change vs veh, ZNF268 / Fold change vs veh, ZNF507 / RFU, DGCR2 / Fold change vs veh, DGCR2 / RFU, WDSUB1 / Fold change vs veh, WDSUB1 / Fold change vs veh, HSP90B1 /// MIR3652 / RFU, ADSS / Fold change vs veh, ADSS / RFU, GK / Fold change vs veh, GK / RFU, ZNF148 / Fold change vs veh, ZNF148 / RFU, TAF9 / Fold change vs veh, TAF9 / RFU, SLC1A5 / Fold change vs veh, SLC1A5 / RFU, SLMO2 / Fold change vs veh, SLMO2 / RFU, ABCC4 / Fold change vs veh, ABCC4 / RFU, LOC101060439 /// RAP1B / Fold change vs veh, LOC101060439 /// RAP1B / RFU, RFX7 / Fold change vs veh, RFX7 / RFU, GTPBP10 / Fold change vs veh, GTPBP10 / RFU, CNEP1R1 / Fold change vs veh, CNEP1R1 / RFU, BIVM-ERCC5 /// ERCC5 / Fold change vs veh, BIVM-ERCC5 /// ERCC5 / RFU, ILF3 / Fold change vs veh, ILF3 / RFU 11762660_at / Fold change /veh 11762660_at / RFU VCAN (11757783_s_at) / Fold change /veh VCAN (11757783_s_at) / RFU DDX43 (11728927_at) / Fold change /veh DDX43 (11728927_at) / RFU KRT8 (11758188_x_at) / Fold change /veh KRT8 (11758188_x_at) / RFU NKD1 (11759106_at) / Fold change /veh NKD1 (11759106_at) / RFU SRD5A1 (11742802_a_at) / Fold change /veh SRD5A1 (11742802_a_at) / RFU TPSAB1 /// TPSB2 (11721975_s_at) / Fold change /veh TPSAB1 /// TPSB2 (11721975_s_at) / RFU GSTM3 (11746129_a_at) / Fold change /veh GSTM3 (11746129_a_at) / RFU IL23R (11737362_x_at) / Fold change /veh IL23R (11737362_x_at) / RFU TMEM51 (11727254_a_at) / Fold change /veh TMEM51 (11727254_a_at) / RFU PIWIL2 (11732686_x_at) / Fold change /veh PIWIL2 (11732686_x_at) / RFU ORM1 (11744905_x_at) / Fold change /veh ORM1 (11744905_x_at) / RFU CCDC152 (11743942_at) / Fold change /veh CCDC152 (11743942_at) / RFU ECM1 (11717891_a_at) / Fold change /veh ECM1 (11717891_a_at) / RFU IL23R (11748794_a_at) / Fold change /veh IL23R (11748794_a_at) / RFU TNFAIP8L3 (11732012_x_at) / Fold change /veh TNFAIP8L3 (11732012_x_at) / RFU MBOAT4 (11741988_at) / Fold change /veh MBOAT4 (11741988_at) / RFU 11764193_at / Fold change /veh 11764193_at / RFU TMEM53 (11763286_at) / Fold change /veh TMEM53 (11763286_at) / RFU MAGEB2 (11727129_at) / Fold change /veh MAGEB2 (11727129_at) / RFU TMEM200A (11744735_a_at) / Fold change /veh TMEM200A (11744735_a_at) / RFU CCDC152 (11751479_a_at) / Fold change /veh CCDC152 (11751479_a_at) / RFU FAM211A (11726209_a_at) / Fold change /veh FAM211A (11726209_a_at) / RFU RGS16 (11746705_a_at) / Fold change /veh RGS16 (11746705_a_at) / RFU VCAN (11755009_s_at) / Fold change /veh VCAN (11755009_s_at) / RFU RHOB (11743442_s_at) / Fold change /veh RHOB (11743442_s_at) / RFU RGS16 (11720943_a_at) / Fold change /veh RGS16 (11720943_a_at) / RFU RGS16 (11720944_at) / Fold change /veh RGS16 (11720944_at) / RFU, VPS4B / Fold change vs veh, VPS4B / RFU, CREB1 / Fold change vs veh, CREB1 / RFU, DNAJC13 / Fold change vs veh, DNAJC13 / RFU, GNAQ / Fold change vs veh, GNAQ / RFU, CDK5R1 / Fold change vs veh, CDK5R1 / RFU, ZRANB3 / Fold change vs veh, ZRANB3 / RFU, CUL4A / Fold change vs veh, CUL4A / RFU, CCNY / Fold change vs veh, CCNY / RFU, UFL1 / Fold change vs veh, UFL1 / RFU, COG3 / Fold change vs veh, COG3 / RFU, DIAPH2 / Fold change vs veh, DIAPH2 / RFU, SKA2 / Fold change vs veh, SKA2 / RFU, AFF3 / Fold change vs veh, AFF3 / RFU, LMF1 / Fold change vs veh, LMF1 / RFU, IPO11 / Fold change vs veh, IPO11 / RFU, DFFB / Fold change vs veh, DFFB / RFU, FOXP1 / Fold change vs veh, FOXP1 / RFU, CARD8 / Fold change vs veh, CARD8 / RFU, STRN3 / Fold change vs veh, STRN3 / RFU, ADK / Fold change vs veh, ADK / RFU, RASSF2 / Fold change vs veh, RASSF2 / RFU, WIPF1 / Fold change vs veh, WIPF1 / RFU, LARP1B / Fold change vs veh, LARP1B / RFU, RASA1 / Fold change vs veh, RASA1 / RFU, RB1 / Fold change vs veh, RB1 / RFU, PPFIA1 / Fold change vs veh, PPFIA1 / RFU, MAT2A / Fold change vs veh, MAT2A / RFU, CCT5 / Fold change vs veh, CCT5 / RFU, WDR92 / Fold change vs veh, WDR92 / RFU, CUX1 / Fold change vs veh, CUX1 / RFU, TTC7A / Fold change vs veh, TTC7A / RFU, TMEM135 / Fold change vs veh, TMEM135 / RFU, DEPTOR / Fold change vs veh, DEPTOR / RFU, CPM / Fold change vs veh, CPM / RFU, DNAJB6 / Fold change vs veh, DNAJB6 / RFU, CACNA2D3 / Fold change vs veh, CACNA2D3 / RFU, DTX4 / Fold change vs veh, DTX4 / RFU, TFCP2 / Fold change vs veh, TFCP2 / RFU, GMCL1 /// GMCL1P1 / Fold change vs veh, GMCL1 /// GMCL1P1 / RFU, AEBP2 / Fold change vs veh, AEBP2 / RFU, SNHG1 /// SNORD22 /// SNORD25 /// SNORD26 /// SNORD27 /// SNORD28 /// SNORD29 /// SNORD31 / Fold change vs veh, SNHG1 /// SNORD22 /// SNORD25 /// SNORD26 /// SNORD27 /// SNORD28 /// SNORD29 /// SNORD31 / Fold change (Aza/veh), C12orf56 (ProbeSet 11735607_a_at) / Fold change (ACY-1035/veh), C12orf56 (ProbeSet 11735607_a_at) / Fold change (Aza/veh), FGFR1OP (ProbeSet 11751329_s_at) / Fold change (ACY-1035/veh), FGFR1OP (ProbeSet 11751329_s_at) / Fold change (Aza/veh), VPS36 (ProbeSet 11739960_a_at) / Fold change (ACY-1035/veh), VPS36 (ProbeSet 11739960_a_at) / RFU SYPL1 (11715823_x_at) / Fold change /veh SYPL1 (11715823_x_at) / RFU IGFBP7 (11715501_s_at) / Fold change /veh IGFBP7 (11715501_s_at) / RFU REEP3 (11722064_at) / Fold change /veh REEP3 (11722064_at) / RFU IGLL1 (11728026_x_at) / Fold change /veh IGLL1 (11728026_x_at): dose or concentration left out as unconfirmed
Settings: ProbeSet 11725141_a_at; LIST B

`Nc1ncn([C@@H]2O[C@H](CO)[C@@H](O)[C@H]2O)c(=O)n1` [azacitidine] was tested, and the “Fold change vs veh, FUBP3” value was 0.84.
